From patent publication US20260070922A1, “PYRAZOLE AND IMIDAZOLE DERIVATIVES AS DUAL OREXIN AND KAPPA-OPIOID RECEPTORS MODULATORS COMPOSITION, METHODS FOR TREATING NEUROLOGICAL AND PSYCHIATRIC DISORDERS” (HAGER BIOSCIENCES, LLC, priority 2022, published 2026)

Columns and labels:
[1] = biological target: T1, Orexin type 1 (OX1R) receptor (Homo sapiens, UniProt O43613); assay: In vitro orexin antagonism assay: intracellular calcium measurement (FLIPR), orexin-A 3 nM as agonist; assay type: cell-based; conditions: for IC50: first value of IC50/Kb cell; for inhibition at 1 µM: read-out: OX1R, % Inh. @ 1 uM; for Kb: second value of IC50/Kb cell
T1 construct: expressed in transfected cells; host or cells: CHO cells (G418 selection)
T1 sequence (O43613 1-425): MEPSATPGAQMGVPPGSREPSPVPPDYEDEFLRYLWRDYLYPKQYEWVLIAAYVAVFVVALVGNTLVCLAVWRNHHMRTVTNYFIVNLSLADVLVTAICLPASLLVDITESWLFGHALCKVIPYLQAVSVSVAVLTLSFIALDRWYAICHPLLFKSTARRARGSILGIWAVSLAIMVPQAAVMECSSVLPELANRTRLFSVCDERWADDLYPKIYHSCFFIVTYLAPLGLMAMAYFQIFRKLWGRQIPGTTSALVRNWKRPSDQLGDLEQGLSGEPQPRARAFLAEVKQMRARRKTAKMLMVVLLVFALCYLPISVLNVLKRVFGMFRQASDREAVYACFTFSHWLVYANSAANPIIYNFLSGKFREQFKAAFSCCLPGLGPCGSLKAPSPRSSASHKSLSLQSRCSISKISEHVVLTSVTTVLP
Summary of the method: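 CHO cells expressing the human orexin receptor were loaded with 3 μM fluo-4 AM plus 5 mM probenecid, then exposed to antagonist for 120 min before 3 nM orexin-A (final) was added on a FLIPR.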

[2] = biological target: T2, human orexin-2 receptor (OX2R) (Homo sapiens, UniProt O43614); assay: as above; assay type: cell-based; conditions: for IC50: first value of IC50/Kb cell; for inhibition at 1 µM: read-out: OX2R, % Inh. @ 1 uM; for Kb: second value of IC50/Kb cell
T2 construct: expressed in transfected cells; host or cells: CHO cells (G418 selection)
T2 sequence (O43614 1-444): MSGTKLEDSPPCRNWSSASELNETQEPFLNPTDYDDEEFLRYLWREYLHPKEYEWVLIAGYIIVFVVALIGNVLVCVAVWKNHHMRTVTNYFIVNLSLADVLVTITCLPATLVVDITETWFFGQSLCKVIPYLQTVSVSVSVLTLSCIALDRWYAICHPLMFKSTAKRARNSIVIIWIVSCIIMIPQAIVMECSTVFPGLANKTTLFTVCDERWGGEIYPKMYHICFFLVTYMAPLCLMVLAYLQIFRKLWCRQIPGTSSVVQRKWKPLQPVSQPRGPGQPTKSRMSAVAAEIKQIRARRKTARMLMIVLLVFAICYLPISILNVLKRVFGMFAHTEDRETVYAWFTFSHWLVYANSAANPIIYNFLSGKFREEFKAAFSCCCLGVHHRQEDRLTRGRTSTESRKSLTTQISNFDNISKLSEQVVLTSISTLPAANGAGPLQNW
Summary of the method: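 CHO cells stably expressing human OX1R or OX2R, loaded with fluo-4 AM (3 μM, 5 mM probenecid) for 50 min at 37 °C, then 30 min at RT. Antagonist preincubated 120 min before 3 nM orexin-A; FLIPR fluorescence peak height vs vehicle gives IC50, possibly normalized to on-plate reference; geometric mean of repeats.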

[3] = biological target: T3, human k-opioid receptor (kOR) (Homo sapiens, UniProt P41145); assay: Human k-opioid (KOP) receptor (agonist radioligand [3H]U-69593) binding assay, transfected RBL cell membranes; conditions: for inhibition at 1 µM: read-out: KOR % Inh. @ 1 uM; for IC50: first value of IC50/Ki cell; for Ki: second value of IC50/Ki cell
T3 construct: expressed in transfected cells; host or cells: RBL cells (membrane homogenates)
T3 sequence (P41145 whole entry): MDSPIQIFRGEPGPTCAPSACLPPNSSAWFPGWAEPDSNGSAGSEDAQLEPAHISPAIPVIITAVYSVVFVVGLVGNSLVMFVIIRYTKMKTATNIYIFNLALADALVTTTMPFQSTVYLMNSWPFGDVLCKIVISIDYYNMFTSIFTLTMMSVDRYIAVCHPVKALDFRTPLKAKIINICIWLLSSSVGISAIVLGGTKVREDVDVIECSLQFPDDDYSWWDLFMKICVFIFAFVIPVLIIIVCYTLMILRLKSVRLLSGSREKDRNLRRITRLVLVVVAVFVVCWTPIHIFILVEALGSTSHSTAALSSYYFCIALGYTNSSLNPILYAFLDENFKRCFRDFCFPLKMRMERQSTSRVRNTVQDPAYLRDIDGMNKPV
Experimental: Human k-Opioid (KOP) Receptor (Agonist Radioligand) Binding Assay
Purpose: Evaluation of the affinity of compounds for the human k-opioid receptor in transfected RBL cells determined in a radioligand binding assay.
Experimental protocol: Cell membrane homogenates (about 80 μg protein) are incubated for 60 min at 22° C. with 0.5 nM [3H]U-69593 in the absence or presence of the test compound in a buffer containing 50 mM Tris-HCl (pH 7.4), 10 mM MgCl2 and 1 mM EDTA. Nonspecific binding is determined in the presence of 10 μM naloxone. Following incubation, the samples are filtered rapidly under vacuum through glass fiber filters ([…], Packard) presoaked with 0.3% PEI and rinsed several times with ice-cold 50 mM Tris-HCl using a 96-sample cell harvester (Unifilter, Packard). The filters are dried then counted for radioactivity in a scintillation counter (Topcount, Packard) using a scintillation cocktail (Microscint 0, Packard). The results are expressed as a percent inhibition of the control radioligand specific binding. The standard reference compound is U-50488, which is tested in each experiment at several concentrations to obtain a competition curve from which its IC50 is calculated.

Compound | IC50 [1] [nM] | inhibition at 1 µM [1] [%] | Kb [1] [nM] | IC50 [2] [nM] | inhibition at 1 µM [2] [%] | Kb [2] [nM] | inhibition at 1 µM [3] [%] | OX1R, % Inh. @ 1 uM [1] [%] | OX2R, % Inh. @ 1 uM [2] [%] | KOR % Inh. @ 1 uM [3] [%] | IC50 [3] [nM] | Ki [3] [nM]
O=C(c1nc2ccccn2c1-c1ccccc1)N1[C@@H]2CC[C@@H](C2)[C@H]1COc1ccc(C(F)(F)F)cn1 [Example 125] | 190 | 93 | 41 | 20 | 57 | 3 | 7 | – | – | – | – | –
C[C@@]1(COc2ccc(C(F)(F)F)cn2)CCCN1C(=O)c1nn2cccnc2c1-c1ccccc1 [Example 146] | 350 | 99 | 74 | – | 27 | – | 0 | – | – | – | – | –
O=C(c1c(-c2ccccc2)nc2cc(C(F)(F)F)ccn12)N1CCC[C@H]1Cn1ccc(-c2ccccn2)n1 [Example 78] | 160 | 78 | 34 | 270 | 55 | 48 | 52 | – | – | – | – | –
C[C@@]1(COc2ccc(C(F)(F)F)cn2)CCCN1C(=O)c1nc2ccccn2c1-c1ccccc1 [Example 144] | 250 | 98 | 53 | – | 13 | – | 4 | – | – | – | – | –
O=C(c1c(-c2ncccn2)nn2ccccc12)N1CCC[C@H]1Cc1nc(-c2ccccn2)no1 [Example 155] | 410 | 69 | 87 | – | 25 | – | 12 | – | – | – | – | –
O=C(c1c(-c2ccccc2F)nn2c1COCC2)N1CCC[C@H]1Cn1ccc(-c2ccc(F)cc2)n1 [Example 66] | 33 | – | 7 | 131 | – | 18 | – | 84 | 68 | 77 | 220 | 120
O=C(c1c(-c2ncccn2)nn2ccccc12)N1[C@@H]2CC[C@@H](C2)[C@H]1COc1ccc(C(F)(F)F)cn1 [Example 153] | 190 | 90 | 40 | – | 35 | – | 0 | – | – | – | – | –
O=C(c1c(-c2ccc(F)cc2)nn2ccccc12)N1CCC[C@H]1Cn1ccc(-c2ccc(C(F)(F)F)cc2)n1 [Example 56] | 576 | – | 121 | – | – | – | – | 59 | 12 | 76 | 450 | 250
C[C@@]1(COc2ccc(C(F)(F)F)cn2)CCCN1C(=O)c1nn2c(c1-c1ccccc1)OCCC2 [Example 157] | 190 | 100 | 39 | – | 16 | – | 7 | – | – | – | – | –
O=C(c1c(-c2ccccc2F)nn2ccccc12)N1CCC[C@H]1Cn1cc(-c2ccc(F)cn2)cn1 [Example 82] | 220 | 85 | 10 | 46 | 74 | 10 | 33 | – | – | – | – | –

The next lines start with results.

IC50 [1] [nM] | inhibition at 1 µM [1] [%] | Kb [1] [nM] | IC50 [2] [nM] | inhibition at 1 µM [2] [%] | Kb [2] [nM] | inhibition at 1 µM [3] [%] | Compound | OX1R, % Inh. @ 1 uM [1] [%] | OX2R, % Inh. @ 1 uM [2] [%] | KOR % Inh. @ 1 uM [3] [%] | IC50 [3] [nM] | Ki [3] [nM]
47 | 82 | 10 | 170 | 64 | 30 | 48 | O=C(c1c(-c2ccccc2F)nn2ccccc12)N1CCC[C@H]1Cn1cc(-c2ccccn2)cn1 [Example 68] | – | – | – | – | –
31 | 97 | 7 | – | 39 | – | 2 | O=C(c1nn2c(c1-c1ccccn1)OCCC2)N1CCC[C@H]1Cn1cc(-c2ccccn2)cn1 [Example 197] | – | – | – | – | –
8 | 100 | 2 | 260 | 82 | 45 | 3 | O=C(c1nn2ccccc2c1-c1ccccn1)N1CCC[C@H]1Cn1cc(-c2ccccn2)cn1 [Example 173] | – | – | – | – | –
9 | 82 | 2 | – | 48 | – | 37 | O=C(c1c(-c2ccccc2)nc2ccc(F)cn12)N1CCC[C@H]1Cn1ccc(-c2ccccn2)n1 [Example 73] | – | – | – | – | –
64 | 87 | 14 | – | 14 | – | 3 | O=C(c1nn2c(c1-c1ccccn1)OCCC2)N1[C@H](Cn2ccc(-c3ccc(F)cn3)n2)C[C@@H]2C[C@@H]21 [Example 202] | – | – | – | – | –
21 | 86 | 4 | – | 65 | – | 3 | O=C(c1nn2cccnc2c1-c1ccccn1)N1CCC[C@H]1Cn1cc(-c2ccccn2)cn1 [Example 186] | – | – | – | – | –
7 | 94.8 | 1 | – | 25.3 | – | 38 | O=C(c1c(-c2ccccc2)nn2c1COCC2)N1CCCC[C@H]1COc1ccc(C(F)(F)F)cn1 [Example 46] | – | – | – | – | –
17 | 99 | 4 | – | 24 | – | 10 | O=C(c1nc2ccccn2c1-c1ccccc1)N1[C@H](Cn2ccc(-c3ccc(F)cn3)n2)C[C@@H]2C[C@@H]21 [Example 126] | – | – | – | – | –
10 | 100 | 2 | – | 26 | – | 0 | [2H]C1([2H])CC[C@@]([2H])(COc2ccc(C(F)(F)F)cn2)N1C(=O)c1nn2c(c1-c1ccccc1)COCC2 [Example 171] | – | – | – | – | –
14 | 100 | 3 | – | 34 | – | 0 | O=C(c1nn2cccnc2c1-c1ccccn1)N1C(Cn2ccc(-c3ccc(F)cn3)n2)C[C@@H]2C[C@@H]21 (some centres unmarked) [Example 187] | – | – | – | – | –
120 | 98 | 26 | – | 19 | – | 8 | C[C@@]1(COc2ccc(C(F)(F)F)cn2)CCCN1C(=O)c1c(-c2ncccn2)nn2ccccc12 [Example 148] | – | – | – | – | –
120 | 93 | 26 | – | 46 | – | 2 | C[C@@]1(COc2ccc(C(F)(F)F)cn2)CCCN1C(=O)c1c(-c2ccccc2)nn2cccnc12 [Example 158] | – | – | – | – | –
11 | 81 | 2 | 275 | 67 | 38 | 37 | O=C(c1c(-c2ccccc2F)nn2ccccc12)N1CCC[C@H]1COc1ccc(C(F)(F)F)cn1 [Example 64] | – | – | – | – | –
9 | 100 | 2 | 110 | 98 | 19 | 53 | O=C(c1nn2c(c1-c1ccccc1)OCCC2)N1CCC[C@H]1Cn1ccc(-c2ccccc2)n1 [Example 130] | – | – | – | – | –
4 | 100 | 1 | 190 | 59 | 32 | 14 | O=C(c1c(-c2ccccc2)nn2cccnc12)N1CCC[C@H]1Cn1ccc(-c2ccccn2)n1 [Example 140] | – | – | – | – | –
10 | 99 | 2 | – | 51 | – | 15 | O=C(c1nc2ccccn2c1-c1ccccc1)N1CCC[C@H]1Cn1cc(-c2ccc(F)cn2)cn1 [Example 122] | – | – | – | – | –
